In patent publication US20080069896A1, “Antitumor Composition” (Kabushiki Kaisha Sangi, priority 2004, published 2008):

Tests used:
[1] = test system: fibroblasts at confluency; assay: Microscopic observation of toxicity effect during resting stage; type: cell-based, rat; conditions: amount corresponding to 2 ppm of platinum content, fibroblasts at confluency, cultured for 48 hours
Text: (§1) A male mature rat was deeply anesthetized with ether, and disinfected by wiping carefully its tail with alcohol. The tail end part was cut by several centimeters, and the skin was removed from coccyx. Tendon was attached to the coccyx, and by culturing the same, fibroblasts can be recovered. Coccyx part was further cut finely with a sterilized pair of scissors, and adhered on a sterilized plastic plate with the cut surface down. After resting the plate for a while, DMEM supplemented with 10% FBS was added thereto. In approximately one week, fibroblasts germinated from the coccyx part, and proliferated in the plate. The fibroblasts collected from rat tail end were used for the following experiment.
From the result of Example 7, 2 ppm which is a value of platinum content that kills 50% of fibroblasts in CDDP during resting stage was set as a standard. Then, CDDP, PtCl4/HAP, PtCl4 and HAP dispersion liquids in an amount corresponding to 2 ppm of platinum content, were added to the fibroblasts at confluency in a medium, and cultured for 48 hours.

YES4 = assay: MTT assay, human cancer cells YES4; type: cell-based; conditions: for IC50 of human cancer cells by MTT assay: YES4, esophageal cancer, HAP agents particle diameter 0.1 μm or less; for Platinum content calculated from IC50 of human cancer cells by MTT assay: YES4, IC50 converted to platinum concentration
Protocol: (§2) Effect of platinum tetrachloride/hydroxyapatite (PtCl4/HAP) and hexachloroplatinate/hydroxyapatite (H2PtCl6/HAP) against human cancer cells (MTT assay)
(§3) According to “in vitro toxicity test using MTT”, which is an ordinary test method, MTT assay was performed for PtCl4/HAP (particle diameter 0.1 μm or less), and H2PtCl6/HAP (particle diameter 0.1 μm or less) by using 19 types of human cancer cells. PtCl4/HAP and H2PtCl6/HAP were used by adjusting the final dispersion concentration to 1.0% in a dispersion liquid each containing 10% platinum as a theoretical value. For comparison, MTT assay was performed for PtCl4 and CDDP. PtCl4 was dissolved at an adequate dose, and then used after serial dilution with PBS (−). For CDDP, injection liquid from Malco was used.

YES6 = assay: MTT assay, human cancer cells YES6; type: cell-based; conditions: for IC50 of human cancer cells by MTT assay: YES6, esophageal cancer, HAP agents particle diameter 0.1 μm or less; for Platinum content calculated from IC50 of human cancer cells by MTT assay: YES6, IC50 converted to platinum concentration
Protocol: as §2, §3

HeLa = assay: MTT assay, human cancer cells HeLa; type: cell-based; conditions: for Platinum content calculated from IC50 of human cancer cells by MTT assay: IC50 converted to platinum concentration; for IC50 of human cancer cells by MTT assay: cervical cancer, HAP agents particle diameter 0.1 μm or less
Protocol: as §2, §3

HSC3 = assay: MTT assay, human cancer cells HSC3; type: cell-based; conditions: for IC50 of human cancer cells by MTT assay: HSC3, oral cancer, HAP agents particle diameter 0.1 μm or less; for Platinum content calculated from IC50 of human cancer cells by MTT assay: HSC3, IC50 converted to platinum concentration
Protocol: as §2, §3

A431 = assay: MTT assay, human cancer cells A431; type: cell-based; conditions: for IC50 of human cancer cells by MTT assay: A431, squamous cell cancer, HAP agents particle diameter 0.1 μm or less; for Platinum content calculated from IC50 of human cancer cells by MTT assay: A431, IC50 converted to platinum concentration
Protocol: as §2, §3

[2] = test system: fibroblasts during resting stage; assay: Toxicity test during resting stage (MTT assay); type: cell-based; conditions: rat fibroblasts, confluent, 48 hours; for IC50 in the toxicity test during resting stage: HAP agents particle diameter 0.1 μm or less
Text: as §1
Rat fibroblasts during proliferating stage were inoculated 2 times more than usual to a 96-well plate, that 100 μl of cell suspension at 2×10^4 cells/ml. Subsequently, it was cultured for 72 hours, in order to make cells in a confluent condition. After confirming with an inverted microscope that cells were in a complete confluent condition in each well, medium of each well was changed. Then, serially diluted test samples were added to the wells by aliquot of 10 μl, by the above-mentioned method. Culture was continued 48 hours after the addition, and subsequently, MTT assay was performed for PtCl4/HAP (particle diameter 0.1 μm or less), and H2PtCl6/HAP (particle diameter 0.1 μm or less), with similar procedures to those described in the above “toxicity test of PtCl4/HAP and H2PtCl6/HAP during proliferation stage”.

KB = assay: MTT assay, human cancer cells KB; type: cell-based; conditions: for Platinum content calculated from IC50 of human cancer cells by MTT assay: IC50 converted to platinum concentration; for IC50 of human cancer cells by MTT assay: oral cancer, HAP agents particle diameter 0.1 μm or less
Protocol: as §2, §3

YES1 = assay: MTT assay, human cancer cells YES1; type: cell-based; conditions: for IC50 of human cancer cells by MTT assay: YES1, esophageal cancer, HAP agents particle diameter 0.1 μm or less; for Platinum content calculated from IC50 of human cancer cells by MTT assay: YES1, IC50 converted to platinum concentration
Protocol: as §2, §3

HepG2 = assay: MTT assay, human cancer cells HepG2; type: cell-based; conditions: for IC50 of human cancer cells by MTT assay: HepG2, liver cancer, HAP agents particle diameter 0.1 μm or less; for Platinum content calculated from IC50 of human cancer cells by MTT assay: HepG2, IC50 converted to platinum concentration
Protocol: as §2, §3

AZ521 = assay: MTT assay, human cancer cells AZ521; type: cell-based; conditions: for IC50 of human cancer cells by MTT assay: AZ521, gastric cancer, HAP agents particle diameter 0.1 μm or less; for Platinum content calculated from IC50 of human cancer cells by MTT assay: AZ521, IC50 converted to platinum concentration
Protocol: as §2, §3

NUGC-4 = assay: MTT assay, human cancer cells NUGC-4; type: cell-based; conditions: for IC50 of human cancer cells by MTT assay: NUGC-4, gastric cancer, HAP agents particle diameter 0.1 μm or less; for Platinum content calculated from IC50 of human cancer cells by MTT assay: NUGC-4, IC50 converted to platinum concentration
Protocol: as §2, §3

YES3 = assay: MTT assay, human cancer cells YES3; type: cell-based; conditions: for IC50 of human cancer cells by MTT assay: YES3, esophageal cancer, HAP agents particle diameter 0.1 μm or less; for Platinum content calculated from IC50 of human cancer cells by MTT assay: YES3, IC50 converted to platinum concentration
Protocol: as §2, §3

[3] = test system: human lung cancer cell Lu99; assay: MTT assay, human lung cancer cell Lu99; type: cell-based; conditions: for IC50 of human cancer cells by MTT assay: Lu99, lung cancer, HAP agents particle diameter 0.1 μm or less (Table 1); for Platinum content calculated from IC50 of human cancer cells by MTT assay: Lu99, IC50 converted to platinum concentration (Table 2)
Protocol: as §2, §3

Kato-III = assay: MTT assay, human cancer cells Kato-III; type: cell-based; conditions: for Platinum content calculated from IC50 of human cancer cells by MTT assay: KATO-III, IC50 converted to platinum concentration; for IC50 of human cancer cells by MTT assay: Kato-III, gastric cancer, HAP agents particle diameter 0.1 μm or less
Protocol: as §2, §3

YES2 = assay: MTT assay, human cancer cells YES2; type: cell-based; conditions: for IC50 of human cancer cells by MTT assay: YES2, esophageal cancer, HAP agents particle diameter 0.1 μm or less; for Platinum content calculated from IC50 of human cancer cells by MTT assay: YES2, IC50 converted to platinum concentration
Protocol: as §2, §3

HSC4 = assay: MTT assay, human cancer cells HSC4; type: cell-based; conditions: for IC50 of human cancer cells by MTT assay: HSC4, oral cancer, HAP agents particle diameter 0.1 μm or less; for Platinum content calculated from IC50 of human cancer cells by MTT assay: HSC4, IC50 converted to platinum concentration
Protocol: as §2, §3

SW837 = assay: MTT assay, human cancer cells SW837; type: cell-based; conditions: for IC50 of human cancer cells by MTT assay: SW837, colon cancer, HAP agents particle diameter 0.1 μm or less; for Platinum content calculated from IC50 of human cancer cells by MTT assay: SW837, IC50 converted to platinum concentration
Protocol: as §2, §3

HT1080 = assay: MTT assay, human cancer cells HT1080; type: cell-based; conditions: for IC50 of human cancer cells by MTT assay: HT1080, fibrosarcoma, HAP agents particle diameter 0.1 μm or less; for Platinum content calculated from IC50 of human cancer cells by MTT assay: HT1080, IC50 converted to platinum concentration
Protocol: as §2, §3

SMILES | Microscopic observation of cell form of cultured fibroblasts [1] | IC50 of human cancer cells by MTT assay (YES4) [ppm] | Platinum content calculated from IC50 of human cancer cells by MTT assay (YES4) [ppm] | IC50 of human cancer cells by MTT assay (YES6) [ppm] | Platinum content calculated from IC50 of human cancer cells by MTT assay (YES6) [ppm] | Platinum content calculated from IC50 of human cancer cells by MTT assay (HeLa) [ppm] | IC50 of human cancer cells by MTT assay (HeLa) [ppm] | IC50 of human cancer cells by MTT assay (HSC3) [ppm] | Platinum content calculated from IC50 of human cancer cells by MTT assay (HSC3) [ppm] | IC50 of human cancer cells by MTT assay (A431) [ppm] | Platinum content calculated from IC50 of human cancer cells by MTT assay (A431) [ppm] | Net Pt: platinum content wherein IC50 is converted to platinum concentration, resting stage [2] [ppm] | IC50 in the toxicity test during resting stage [2] [ppm] | Platinum content calculated from IC50 of human cancer cells by MTT assay (KB) [ppm] | IC50 of human cancer cells by MTT assay (KB) [ppm] | IC50 of human cancer cells by MTT assay (YES1) [ppm] | Platinum content calculated from IC50 of human cancer cells by MTT assay (YES1) [ppm] | IC50 of human cancer cells by MTT assay (HepG2) [ppm] | Platinum content calculated from IC50 of human cancer cells by MTT assay (HepG2) [ppm] | IC50 of human cancer cells by MTT assay (AZ521) [ppm] | also measured
[NH2][Pt]([NH2])([Cl])[Cl] [CDDP, cisplatin] | most of the cells had a round form | 1.3 | 0.8 | 0.8 | 0.5 | 1.4 | 2.1 | 2.9 | 1.9 | 5.7 | 3.7 | 1.9 | 2.9 | 4.1 | 6.3 | 8.2 | 5.4 | 5.0 | 5.0 | 1.0 | Platinum content calculated from IC50 of human cancer cells by MTT assay (AZ521): 0.7 ppm; IC50 of human cancer cells by MTT assay (NUGC-4): 15.6 ppm; Platinum content calculated from IC50 of human cancer cells by MTT assay (NUGC-4): 10.1 ppm; IC50 of human cancer cells by MTT assay (YES3): 1.2 ppm; Platinum content calculated from IC50 of human cancer cells by MTT assay (YES3): 0.8 ppm; IC50 of human cancer cells by MTT assay [3]: 0.8 ppm; Platinum content calculated from IC50 of human cancer cells by MTT assay [3]: 0.8 ppm; Platinum content calculated from IC50 of human cancer cells by MTT assay (Kato-III): 1.8 ppm; IC50 of human cancer cells by MTT assay (Kato-III): 2.7 ppm; IC50 of human cancer cells by MTT assay (YES2): 1.7 ppm; Platinum content calculated from IC50 of human cancer cells by MTT assay (YES2): 1.1 ppm; IC50 of human cancer cells by MTT assay (HSC4): 4.5 ppm; Platinum content calculated from IC50 of human cancer cells by MTT assay (HSC4): 2.9 ppm; IC50 of human cancer cells by MTT assay (SW837): 40.2 ppm; Platinum content calculated from IC50 of human cancer cells by MTT assay (SW837): 26.1 ppm; IC50 of human cancer cells by MTT assay (HT1080): 25.5 ppm; Platinum content calculated from IC50 of human cancer cells by MTT assay (HT1080): 16.6 ppm
[Cl][Pt]([Cl])([Cl])[Cl] [PtCl4, platinum tetrachloride] | many cells wherein spindle form was deformed, or having a round form, were observed | 14.6 | 8.5 | 11.9 | 6.9 | 4.0 | 7.0 | 9.6 | 5.5 | 9.5 | 5.5 | 13.8 | 23.8 | 8.7 | 15.0 | 19.2 | 11.1 | 6.2 | 6.2 | 14.6 | Platinum content calculated from IC50 of human cancer cells by MTT assay (AZ521): 8.4 ppm; IC50 of human cancer cells by MTT assay (NUGC-4): 7.7 ppm; Platinum content calculated from IC50 of human cancer cells by MTT assay (NUGC-4): 4.5 ppm; IC50 of human cancer cells by MTT assay (YES3): 19.2 ppm; Platinum content calculated from IC50 of human cancer cells by MTT assay (YES3): 11.1 ppm; IC50 of human cancer cells by MTT assay [3]: 1.1 ppm; Platinum content calculated from IC50 of human cancer cells by MTT assay [3]: 1.1 ppm; Platinum content calculated from IC50 of human cancer cells by MTT assay (Kato-III): 3.4 ppm; IC50 of human cancer cells by MTT assay (Kato-III): 5.8 ppm; IC50 of human cancer cells by MTT assay (YES2): 35.8 ppm; Platinum content calculated from IC50 of human cancer cells by MTT assay (YES2): 20.7 ppm; IC50 of human cancer cells by MTT assay (HSC4): 5.7 ppm; Platinum content calculated from IC50 of human cancer cells by MTT assay (HSC4): 3.3 ppm; IC50 of human cancer cells by MTT assay (SW837): 32.9 ppm; Platinum content calculated from IC50 of human cancer cells by MTT assay (SW837): 19.1 ppm; IC50 of human cancer cells by MTT assay (HT1080): 9.6 ppm; Platinum content calculated from IC50 of human cancer cells by MTT assay (HT1080): 5.6 ppm
